Structures are written as SMILES. ≈ marks a conversion by molar mass, not a printed value.

One may read the IC50 as the point on the concentration scale where inhibition reaches its midpoint. In general, MBC refers to the lowest tested concentration that kills the bacteria rather than only halting them. As a reminder, the MIC is the smallest concentration in the dilution series that meets the test's criterion for growth inhibition.

Data set [1] has as its system Candida albicans ATCC 90028. Description: Antimicrobial assay, C. albicans. The format is cell-based. Particulars: ATCC90028, read-out: IC50, C. albicans.
For data set [2], the system named is L. donovani promastigotes. The data set can be described thus: Antileishmanial assay. The data set is classed as cell-based. As to conditions: Leishmania donovani, 48 h, read-out: L. donovani IC50.
The test system of data set [3] is P. falciparum Sierra Leone D6 (chloroquine-sensitive). Description: Antimalarial/parasite LDH assay, D6 clone. As to conditions: Plasmodium falciparum, D6, 72 h, read-out: P. falciparum D6 IC50. The data set is classed as cell-based.
Data set [4] relates to Mycobacterium intracellulare ATCC 23068. Description: Antimicrobial assay, M. intracellulare. The data set is classed as cell-based. As to conditions: for MIC: ATCC23068, read-out: MIC, M. intracellulare.
In data set [5] the test system is methicillin-resistant Staphylococcus aureus ATCC 43300. Description: Antimicrobial assay, MRSA. Particulars: ATCC43300|MRSA; for MBC: read-out: MBC, MRSA; for MIC: read-out: MIC, MRSA. The data set is classed as cell-based.
Data set [6] relates to SK-MEL (human malignant melanoma). Description: Cytotoxicity assay, SK-MEL. The format is cell-based. Particulars: 48 h, read-out: IC50 SK-MEL.
The subject of data set [7] is Aspergillus fumigatus ATCC 90906. Description: Antimicrobial assay, A. fumigatus. The data set is classed as cell-based. As to conditions: ATCC90906, read-out: IC50, A. fumigatus.
Data set [8] has as its system P. berghei (NK-65 strain). The data set can be described thus: In vivo antimalarial assay.
The next data set has as its system RBC. The data set can be described thus: Hemolytic activity. As to conditions: from IC50 (RBC lysis).
The subject of data set [9] is KB (human epidermoid carcinoma). Description: Cytotoxicity assay, KB. The data set is classed as cell-based. As to conditions: 48 h, read-out: IC50 KB.
Data set [10] has as its system Cryptococcus neoformans ATCC 90113. Description: Antimicrobial assay, C. neoformans. The format is cell-based.

Turning to `C[C@@H]1N[C@H](CCCCCCCCCCc2cc(CCCCCCCCCC[C@H]3CC[C@@H](O)[C@@H](C)N3)c[n+]3c2CCC3)CC[C@H]1O` [Compound 4, Isoprosopilosidine], the half-maximal inhibitory concentration (IC50) in data set [1] is > 20 µg/mL; in data set [2] it was 0.8 µg/mL; in data set [3] it was 0.042 µg/mL.

Consider `C[C@H]1N[C@@H](CCCCCCCCCCC2=C[C@@H](CCCCCCCCCC[C@H]3CC[C@@H](O)[C@@H](C)N3)[C@@H]3CCCN3C2)CC[C@H]1O` [Compound 5, juliprosopine], for which, in [1], the half-maximal inhibitory concentration (IC50) is > 20 µg/mL. In data set [4] (ATCC23068, read-out: MBC, M. intracellulare), the minimal bactericidal concentration (MBC) was determined as 20 µg/mL (≈ 31.7 µM). The MIC in [4] turned out to be 20 µg/mL (≈ 31.7 µM).

With `C[C@@H]1N[C@H](CCCCCCCCCCC2=C[C@@H](CCCCCCCCCC[C@@H]3CC[C@@H](O)[C@H](C)N3)[C@@H]3CCCN3C2)CC[C@H]1O` [Compound 2, 6,8-bis-[(2R,5R,6R)-5-hydroxy-6-methylpiperidin-2-yl]decyl-[8R,8aS]-6,7-dehydroindolizidine], in data set [5], the minimum bactericidal concentration (MBC) is 10 µg/mL (≈ 15.9 µM) and the MIC came to 2.5 µg/mL (≈ 3.97 µM). Besides, the MIC in [4] stood at 5 µg/mL (≈ 7.94 µM). For the same compound, in [6], the IC50 was < 1.1 µg/mL.

Take `C[C@H]1N[C@@H](CCCCCCCCCCC2=C[C@@H](CCCCCCCCCC[C@@H]3CC[C@H](O)[C@@H](C)N3)[C@@H]3CCCN3C2)CC[C@H]1O` [Compound 3, Isoprosopilosine]: the figures for the IC50 in [1] and in data set [6] were > 20 µg/mL and < 1.1 µg/mL, respectively. In addition, in data set [4], the MIC is 5 µg/mL (≈ 7.94 µM).

Take `C[C@@H]1N[C@H](CCCCCCCCCCc2cc(CCCCCCCCCC[C@@H]3CC[C@@H](O)[C@H](C)N3)c3[n+](c2)CCC3)CC[C@H]1O.[Cl-]` [Compound 6, Prosopilosidine dihydrochloride]: the MBC in [5] stood at 5 µg/mL. Also, the half-inhibitory concentration (IC50) in data set [7] was > 20 µg/mL.

Consider `CCN(CC)CCCC(C)Nc1ccnc2cc(Cl)ccc12` (stereo not drawn) [Chloroquine, chloroquine, reference compound], for which, in data set [3], the IC50 turned out to be 0.017 µg/mL (≈ 0.0531 µM).

With `CCO[C@H]1O[C@@H]2O[C@@]3(C)CC[C@H]4[C@H](C)CC[C@@H]([C@H]1C)[C@@]24OO3` [β-Arteether, β-arteether, reference compound], in data set [8] (10 mg/kg × 3 days), the “Cure (mice without parasitemia till day 28/total mice in group)” value is 5/5.

For `C[C@@H]1N[C@H](CCCCCCCCCCc2cc(CCCCCCCCCC[C@@H]3CC[C@H](O)[C@@H](C)N3)c3[n+](c2)CCC3)CC[C@H]1O.[Cl-]` [Compound 1], the “Cure (mice without parasitemia till day 28/total mice in group)” value is reported as 0/5 in [8] (1 mg/kg × 3 days, ip) and 0/5 in [8] (2 mg/kg × 3 days, ip). Further, in [8] (1 and 2 mg/Kg/day for 3 days, ip, mice), the “toxicity observed due to treatment” value is “no significant toxicity”. The minimum inhibitory concentration (MIC) in data set [4] amounted to 2.5 µg/mL. In the data set on RBC, the “fold less toxic than amphotericin B in regard to hemolytic activity” value is recorded as > 4 fold.

In the case of `C[C@@H]1[C@H](O)[C@@H](C)/C=C/C=C/C=C/C=C/C=C/C=C/C=C/[C@H](O[C@@H]2O[C@H](C)[C@@H](O)[C@H](N)[C@@H]2O)C[C@@H]2O[C@](O)(C[C@@H](O)C[C@@H](O)[C@H](O)CC[C@@H](O)C[C@@H](O)CC(=O)O[C@H]1C)C[C@H](O)[C@H]2C(=O)O` [Amphotericin B], the IC50 in data set [9] was > 25 µg/mL.

For the compound `O=C(O)c1cn(C2CC2)c2cc(N3CCNCC3)c(F)cc2c1=O` [Ciprofloxacin, reference compound], the IC50 in data set [4] (ATCC23068, read-out: IC50, M. intracellulare) was 0.25 µg/mL (≈ 0.754 µM).

Regarding `C[C@H]1N[C@@H](CCCCCCCCCCC2=C[C@@H](CCCCCCCCCC[C@@H]3CC[C@H](O)[C@@H](C)N3)[C@@H]3CCCN3C2)CC[C@H]1O.Cl.Cl` [Compound 8, Isoprosopilosine dihydrochloride], in data set [5], the MBC turned out to be 5 µg/mL and the MIC stood at 5 µg/mL.

For the compound `C[C@@H]1N[C@H](CCCCCCCCCCC2=C[C@@H](CCCCCCCCCC[C@@H]3CC[C@@H](O)[C@H](C)N3)[C@@H]3CCCN3C2)CC[C@H]1O.Cl.Cl` [Compound 7, Prosopilosine dihydrochloride], the figures for the IC50 in [1], in data set [2] and in [7] were > 20 µg/mL, 3.1 µg/mL and > 20 µg/mL, respectively. Also, in data set [5], the MBC was found to be 5 µg/mL. Also, the MIC in data set [5] was found to be 5 µg/mL; in data set [10] (ATCC90113, read-out: MIC, C. neoformans) it was 5 µg/mL. The MFC in data set [10] (ATCC90113, read-out: MFC, C. neoformans) turned out to be 5 µg/mL.

Source of the values: publication PMC3715121 (Journal of natural products, 2009).
